The results in this text go back to PubChem BioAssay AID1259408 (Genetic Toxicology Data Bank (GENE-TOX), 2018).

Calls of active or inactive are those of the source. No rule for the calls is given here.

This series concerns GENE-TOX genotoxicity assays, various organisms and cells. The experiment in a line: GENE-TOX mutagenicity studies. The settings on record: for call: Assay Type: In vivo carcinogenicity studies.
Where [1] appears, read: Species/Cell Type: Chinese hamster lung (V79) cells, Assay Type: Forward gene mutation at the HPRT or ouabain locus, Assay Code: V79+, Evaluation Type: Evaluation A (Pre-1980).
Setting [2] is: Species/Cell Type: Saccharomyces cerevisiae, Assay Type: Mitotic recombination or gene conversion, Assay Code: YEC-, Evaluation Type: Evaluation A (Pre-1980).
The mark [3] stands for this setting: Species/Cell Type: Salmonella typhimurium (one or more of the five standard strains: TA98, TA100, TA1535, TA1537, and TA1538), Assay Type: Histidine reverse gene mutation, Ames assay, Assay Code: SAL+, Evaluation Type: Evaluation A (Pre-1980).
Where [4] appears, read: Species/Cell Type: Nonhuman, Assay Code: CCG+, Evaluation Type: Evaluation A (Pre-1980).
The mark [5] stands for this setting: Species/Cell Type: Fischer rat embryo (RLV/1706) cells, Assay Type: Cell transformation, viral enhanced, Assay Code: CTR+, Evaluation Type: Evaluation A (Pre-1980).
The mark [6] stands for this setting: Species/Cell Type: Hordeum vulgare (barley), Assay Type: Chromosome aberrations, Assay Code: HOC+D, Dose Response: With dose response, Evaluation Type: Evaluation A (Pre-1980).
Setting [7] is: Species/Cell Type: Nonhuman, Assay Type: Sister-chromatid exchange (SCE) in vitro, Assay Code: SC2+D, Dose Response: With dose response, Evaluation Type: Evaluation A (Pre-1980).
Setting [8] is: Species/Cell Type: Escherichia coli WP2, Assay Type: Tryptophan reverse gene mutation, Assay Code: WP2+, Evaluation Type: Evaluation A (Pre-1980).
[9] abbreviates: Species/Cell Type: Escherichia coli WP2 UVRA, Assay Type: Tryptophan reverse gene mutation, Assay Code: WPU-, Evaluation Type: Evaluation A (Pre-1980).
Where [10] appears, read: Species/Cell Type: Salmonella typhimurium (one or more of the five standard strains: TA98, TA100, TA1535, TA1537, and TA1538), Assay Type: Histidine reverse gene mutation, Ames assay, Assay Code: SALT, Evaluation Type: Evaluation A (Pre-1980).
The mark [11] stands for this setting: Species/Cell Type: Nonhuman, Assay Type: Sister-chromatid exchange (SCE) in vitro, Assay Code: SC2+D, Dose Response: With dose response, Evaluation Type: Evaluation B (Post-1980).

With `CCCCOc1ccc2nc3cc(Cl)ccc3c(NCCCNCCCl)c2n1`, where the note is “Species/Cell Type: Chinese hamster ovary (CHO) cells, Assay Type: Forward gene mutation at the HPRT locus, Assay Code: CHO+, Evaluation Type: Evaluation B (Post-1980)”, the mutagenic call was “active; positive”.
Take `CC(=O)Nc1ccc(-c2ccccc2)cc1`: the mutagenic call (Species/Cell Type: Human diploid fibroblasts, Assay Type: Unscheduled DNA synthesis (UDS) in vitro, DNA effects, Assay Code: UDH-, Evaluation Type: Evaluation A (Pre-1980)) is “inactive; negative”.
Regarding `Cc1ccc2cc3c4c(ccc3c3c2c1CC3)C=C[C@H](O)[C@H]4O`, the mutagenic call by setting is: under setting [1], “active; positive”; (Species/Cell Type: Salmonella typhimurium (one or more of the five standard strains: TA98, TA100, TA1535, TA1537, and TA1538), Assay Type: Histidine reverse gene mutation, Ames assay, Assay Code: SAL+*, Activation: With metabolic activation, Evaluation Type: Evaluation A (Pre-1980)) “active; positive”. The call (Species/Cell Type: Nonhuman, Assay Code: CCGT, Evaluation Type: Evaluation A (Pre-1980)) is on record as “no conclusion”.
`O=C1OC2(c3ccccc31)c1cc(I)c(O)c(I)c1Oc1c2cc(I)c(O)c1I`: the mutagenic call (Species/Cell Type: Bacillus subtilis (H17 vs M45), Assay Type: Rec-assay, spot test, DNA effects (bacterial DNA repair), Assay Code: REW-, Evaluation Type: Evaluation A (Pre-1980)) is “inactive; negative”; the mutagenic call (Species/Cell Type: Bacillus subtilis (H17 vs M45T), Assay Type: Rec-assay, spot test, DNA effects (bacterial DNA repair), Assay Code: REXT, Evaluation Type: Evaluation A (Pre-1980)) is recorded as “no conclusion”; the mutagenic call (Species/Cell Type: Mammalian polychromatic erythrocytes, Assay Type: Micronucleus test, chromosome aberrations, Assay Code: MNT+, Evaluation Type: Evaluation B (Post-1980)) is “active; positive”; the mutagenic call under setting [2] was “inactive; negative”; the mutagenic call (Species/Cell Type: Salmonella typhimurium (one or more of the five standard strains: TA98, TA100, TA1535, TA1537, and TA1538), Assay Type: Histidine reverse gene mutation, Ames assay, Assay Code: SAL-, Evaluation Type: Evaluation A (Pre-1980)) is “inactive; negative”.
As to `O=NN1CCC(O)C1` (stereo unspecified), under setting [3], the mutagenic call is “active; positive”.
On to `COc1ccc(C)cc1N`, for which, under setting [4], the call was “active; positive”.
Regarding `O=S1(=O)CCCO1`, the mutagenic call (Species/Cell Type: Escherichia coli polA (W3119 vs P3478), Assay Type: Rec-assay, DNA effects (bacterial DNA repair), Assay Code: RE1+, Evaluation Type: Evaluation A (Pre-1980)) is “active; positive”; the mutagenic call under setting [5] was “active; positive”; the mutagenic call under setting [6] is “active; positive”; the mutagenic call (Species/Cell Type: Human diploid fibroblasts, Assay Type: Unscheduled DNA synthesis (UDS) in vitro, DNA effects, Assay Code: UDH+D, Dose Response: With dose response, Evaluation Type: Evaluation A (Pre-1980)) was “active; positive”; the mutagenic call under setting [7] is “active; positive”; the mutagenic call (Species/Cell Type: Saccharomyces cerevisiae, Assay Type: Mitotic recombination or gene conversion, Assay Code: YEC+, Evaluation Type: Evaluation A (Pre-1980)) was “active; positive”. Further, the mutagenic call is “active; positive” (Species/Cell Type: Saccharomyces cerevisiae, Assay Type: Mitotic recombination or gene conversion, Assay Code: YEH+, Evaluation Type: Evaluation A (Pre-1980)); “active; positive” under setting [3]; “active; positive” (Species/Cell Type: Salmonella typhimurium, Assay Type: Forward and reverse gene mutation, host-mediated assay, Assay Code: HMA+, Evaluation Type: Evaluation A (Pre-1980)); “active; positive” (Species/Cell Type: Schizosaccharomyces pombe, Assay Type: Reverse gene mutation, Assay Code: YEZ+, Evaluation Type: Evaluation A (Pre-1980)); “active; positive” (Species/Cell Type: Syrian hamster embryo (SA7/SHE) cells, Assay Type: Cell transformation, viral enhanced, Assay Code: CT7+, Evaluation Type: Evaluation A (Pre-1980)); “no conclusion” (Species/Cell Type: Syrian hamster embryo (SHE) cells, Assay Type: Cell transformation, clonal assay, Assay Code: CTCT, Evaluation Type: Evaluation A (Pre-1980)). The mutagenic call (Species/Cell Type: Vicia faba, Assay Type: Chromosome aberrations, Assay Code: VIC+, Evaluation Type: Evaluation A (Pre-1980)) was “active; positive”. For the same compound, the call under setting [4] is “active; positive”.
For `NC(=O)N(CCCl)N=O`, under setting [1], the mutagenic call was “active; positive”.
As to `Nc1ccc(N=Nc2ccc(-c3ccc(N=Nc4c(S(=O)(=O)O)cc5c(c4N)C(=O)/C(=N/Nc4ccccc4)C(S(=O)(=O)O)=C5)cc3)cc2)c(N)c1`, where the note is “Species/Cell Type: Drosophila melanogaster, Assay Type: Sex-linked recessive lethal gene mutation, Assay Code: SRL-, Evaluation Type: Evaluation A (Pre-1980)”, the mutagenic call was “inactive; negative”. Moreover, the call under setting [4] was “active; positive”.
For `CN(C)CCCN1c2ccccc2Sc2ccccc21`, under setting [7], the mutagenic call was “active; positive”.
Consider `O=S(=O)(O)c1ccc2c(N=Nc3ccccc3)c(O)ccc2c1`, for which, under setting [2], the mutagenic call is “inactive; negative”.
`O=C(Nc1nc(-c2ccc([N+](=O)[O-])o2)cs1)C(F)(F)F`: the mutagenic call is “active; positive” under setting [8], “inactive; negative” under setting [9] and “active; positive” under setting [3].
Turning to `Cc1c2ccccc2c(CCl)c2ccc3ccccc3c12`, the mutagenic call under setting [3] was “active; positive”.
`Cc1ccc(F)c2ccc3c4ccccc4ccc3c12`: the mutagenic call under setting [10] is “no conclusion”.
With `CN(C)Nc1nc(-c2ccc([N+](=O)[O-])o2)cs1`, the mutagenic call was “active; positive” under setting [8], “inactive; negative” under setting [9] and “active; positive” under setting [3].
As for `Cc1ccc2ccc3c(C)c4ccccc4c(C)c3c2c1`, the mutagenic call (Species/Cell Type: Chinese hamster lung (V79) cells, Assay Type: Forward gene mutation at the HPRT or ouabain locus, Assay Code: V79-*, Activation: With metabolic activation, Evaluation Type: Evaluation A (Pre-1980)) is “inactive; negative”.
As to `CNC(=O)c1c(I)c(NC(C)=O)c(I)c(C(=O)O)c1I`, the mutagenic call (Species/Cell Type: Human lymphocytes, Assay Type: Sister-chromatid exchange (SCE) in vitro, Assay Code: SCL+D, Dose Response: With dose response, Evaluation Type: Evaluation B (Post-1980)) is “active; positive” and the mutagenic call (Species/Cell Type: Human, Assay Type: Sister-chromatid exchange (SCE) in vitro, Assay Code: SC1+D, Dose Response: With dose response, Evaluation Type: Evaluation B (Post-1980)) is “active; positive”.
`Nc1ncnc2c1ncn2[C@@H]1O[C@H](CO[C@H]2[C@H](O)[C@@H](O)[C@@H](O[C@@H](C(=O)O)[C@H](O)[C@H](OP(=O)(O)O)[C@H](O)C(=O)O)O[C@@H]2CO)[C@@H](O)[C@H]1O`: the mutagenic call (Species/Cell Type: Plant, Assay Type: Micronucleus test, chromosome aberrations, Assay Code: MNP+, Evaluation Type: Evaluation A (Pre-1980)) is “active; positive”.
For the compound `NCCSSCCN`, the mutagenic call by setting is: (Species/Cell Type: Human lymphocytes, Assay Type: Sister-chromatid exchange (SCE) in vitro, Assay Code: SCLT, Evaluation Type: Evaluation B (Post-1980)) “no conclusion”; (Species/Cell Type: Human, Assay Type: Sister-chromatid exchange (SCE) in vitro, Assay Code: SC1T, Evaluation Type: Evaluation B (Post-1980)) “no conclusion”; under setting [11], “active; positive”.
For the compound `ClCc1cccnc1`, the mutagenic call reads like this: under setting [5], “active; positive”; (Species/Cell Type: Mouse (BALB/c-3T3) cells, Assay Type: Cell transformation, Assay Code: CTB-, Evaluation Type: Evaluation A (Pre-1980)) “inactive; negative”. The call (Species/Cell Type: Nonhuman, Assay Code: CCG+L, Evaluation Type: Evaluation A (Pre-1980)) is “active; positive”.
For the compound `CN(CCCCOC[C@H](N)C(=O)O)N=O`, the mutagenic call was “inactive; negative” (Species/Cell Type: Escherichia coli polA (W3110 vs P3478), Assay Type: Rec-assay, DNA effects (bacterial DNA repair), Assay Code: RE2-, Evaluation Type: Evaluation A (Pre-1980)) and “no conclusion” (Species/Cell Type: Escherichia coli polA (W3119 vs P3478), Assay Type: Rec-assay, DNA effects (bacterial DNA repair), Assay Code: RE1T, Evaluation Type: Evaluation A (Pre-1980)).
As for `CCNC(=O)[C@@H]1CCCN1C(=O)[C@H](CCCN=C(N)N)NC(=O)[C@H](CC(C)C)NC(=O)[C@@H](Cc1c[nH]c2ccccc12)NC(=O)[C@H](Cc1ccc(O)cc1)NC(=O)[C@H](CO)NC(=O)[C@H](Cc1c[nH]c2ccccc12)NC(=O)[C@H](Cc1cnc[nH]1)NC(=O)[C@@H]1CCC(=O)N1`, the mutagenic call (Species/Cell Type: Human, Sex: Male, Assay Type: Sperm morphology, Assay Code: SPH+, Evaluation Type: Evaluation A (Pre-1980)) is “active; positive”.
On to `CO[C@@]12[C@H](COC(N)=O)C3=C(C(=O)C(C)=C(N)C3=O)N1C[C@H]1[C@@H]2N1C` (stereo partly specified), for which the mutagenic call under setting [11] was “active; positive”.
With `c1cc2ccc3ccc4c5c(c6c(c1CCC6)c2c35)CCC4`, under setting [10], the mutagenic call is reported as “no conclusion”.
Regarding `COCCOS(C)(=O)=O`, the mutagenic call by setting is: (Species/Cell Type: Arabidopsis species, Assay Type: Gene mutation, Assay Code: ARM+D, Dose Response: With dose response, Evaluation Type: Evaluation A (Pre-1980)) “active; positive”; under setting [6], “active; positive”.
